Results as given in the NIST ThermoML archive (doi:10.1016/j.jct.2016.11.010).
Numbers after ± are expanded uncertainties.

Assay: mn = molality of the nth substance listed, in mol/kg
Conditions: 100 kPa, Liquid; for speed of sound: Frequency=3 MHz, Sing-around technique in a fixed-path interferometer; for mass density: Vibrating tube method

SMILES: O=C([O-])CC(O)(CC(=O)[O-])C(=O)[O-].[Li+].[Li+].[Li+] [trilithium citrate] + O
- speed of sound (288.15 K, m1 = 0.2): 1509.4 ± 4.2 m/s
- speed of sound (288.15 K, m1 = 0.4): 1548.6 ± 4.2 m/s
- speed of sound (288.15 K, m1 = 0.6): 1589.2 ± 4.2 m/s
- mass density (288.15 K, m1 = 0.2): 1027.57 ± 0.36 kg/m3
- mass density (288.15 K, m1 = 0.4): 1052.95 ± 0.37 kg/m3
- mass density (288.15 K, m1 = 0.6): 1078.48 ± 0.38 kg/m3
- speed of sound (298.15 K, m1 = 0.2): 1536 ± 4.2 m/s
- speed of sound (298.15 K, m1 = 0.4): 1572.7 ± 4.2 m/s
- speed of sound (298.15 K, m1 = 0.6): 1610.3 ± 4.2 m/s
- mass density (298.15 K, m1 = 0.2): 1025.15 ± 0.36 kg/m3
- mass density (298.15 K, m1 = 0.4): 1050.23 ± 0.37 kg/m3
- mass density (298.15 K, m1 = 0.6): 1075.51 ± 0.38 kg/m3
- speed of sound (308.15 K, m1 = 0.2): 1556.2 ± 4.2 m/s
- speed of sound (308.15 K, m1 = 0.4): 1590.4 ± 4.2 m/s
- speed of sound (308.15 K, m1 = 0.6): 1626 ± 4.2 m/s
- mass density (308.15 K, m1 = 0.2): 1021.94 ± 0.35 kg/m3
- mass density (308.15 K, m1 = 0.4): 1046.82 ± 0.36 kg/m3
- mass density (308.15 K, m1 = 0.6): 1071.94 ± 0.37 kg/m3
- speed of sound (318.15 K, m1 = 0.2): 1570.5 ± 4.2 m/s
- speed of sound (318.15 K, m1 = 0.4): 1602.2 ± 4.2 m/s
- speed of sound (318.15 K, m1 = 0.6): 1636.1 ± 4.2 m/s
- mass density (318.15 K, m1 = 0.2): 1017.98 ± 0.35 kg/m3
- mass density (318.15 K, m1 = 0.4): 1042.77 ± 0.36 kg/m3
- mass density (318.15 K, m1 = 0.6): 1067.78 ± 0.37 kg/m3
